In patent US12662688B2, “Site-selective deuteration of amino acids through dual protein catalysis” (Wisconsin Alumni Research Foundation, priority 2022, dated 2026):

Experiments:
[1] = target: DsaD/DsaE complex (Streptomyces scopuliridis, UniProt A0A0D5CCB2); assay: Steady-state kinetic analysis of H/D exchange of L-Ile by DsaD with partner protein DsaE; format: biochemical
Description: (§1) FIGS. 2A-2E. Steady-state kinetic analysis of H/D exchange by the Ile epimerization system. FIG. 2A. Steady-state kinetic analysis describing Cβ-deuteration^a of L-Ile under varied equivalents of partner enzyme DsaE. FIG. 2B. Steady-state kinetic analysis of Cβ-deuteration rates^a at a constant 1 mM L-Ile, measured against increasing equivalents of DsaE. FIG. 2C. Steady-state kinetic analysis of Cα-deuteration^a of L-Ile in the presence and absence of partner protein DsaE. FIG. 2D. Proposed mechanism of selective deuterium incorporation at Cα and Cβ catalyzed by dual protein catalysis. FIG. 2E. UV-visible spectrum of DsaD in the absence and presence of L-Ile.^a Measurement of initial rates was performed in duplicate at 24° C. Conditions: 0.1-10 mM L-Ile, 3 μM DsaD, 50 mM sodium phosphate (pD 8.4), and 0.1 mM PLP in D2O (99.9%). Proteins were exchanged into a 50 mM sodium phosphate-D2O (pD 8.4) solution prior to reaction initiation to minimize proton contamination (<1% H2O). Following quench with MeCN, crude reaction products were subjected to functionalization with Marfey's reagent (L-FDAA) to enable analysis by reverse-phase chromatography and quantification of isotope incorporation by mass spectrometry.
(§2) Marfey's derivatization of analytical scale reactions: Derivatization of the resulting analytical scale product mixture (to increase overall signal and enable reverse phase chromatographic analysis) was achieved by treatment with Marfey's reagent^2 (1-fluoro-2-4-dinitrophenyl-5-L-alanine amide, L-FDAA) using the following protocol. 25 μL of quenched reaction mix (final amine concentration, 1.6 mM) was added to an Eppendorf tube with 50 μL of 15 mM NaHCO3 (final concentration, 5 mM) and 75 μL of 5 mM L-FDAA (final concentration, 2.5 mM). Derivatization reactions were carried out for 10-12 h before quenching with 150 μL of 60 mM HCl dissolved in acetonitrile. Final reaction analysis was carried out by UPLC-DAD-MS and quantitation as described below.
(§3) Quantitation of deuteration in analytical scale reactions: Deuteration reactions were analyzed by UPLC-DAD-MS with single ion recording (SIR) channels set to record a spectrum with the appropriate isotopic mass in positive mode. The area under the curve of recorded SIR peaks was obtained and normalized to account for natural isotopic abundance distributions (e.g. ^13C, ^15N, ^2H, ^34S, etc). Percent deuterium incorporation was calculated by the formula below. These measurements were carried out in an iterative fashion to measure Cα deuteration and Cβ deuteration.
Kinetic analysis of biocatalytic L-Ile deuteration: Initial rates of α- or β-deuteration were obtained by means of end-point assay using the quantitation protocol for analytical scale reactions as described above. All reagents were prepared in D2O (99.9% D) and protein stocks were dialyzed (3 exchanges over 3 h at 4° C.) into 50 mM sodium phosphate buffer dissolved in D2O (pD 8.4) using a slide-a-lyzer device with a 3,000 Da cutoff. Reactions were performed at 25° C. in 1 mL Eppendorf tubes. Michaelis constants (KM) for α- and β-deuteration of L-Ile were determined using the concentration range of 0.1-10 mM L-Ile using 3 μM DsaD. Partner protein (DsaE) concentrations were consistent within each experiment and separate experiments were performed using varied equivalents of partner protein (0-50 equiv). Initial velocities were measures in duplicate or triplicate for at least 6 different substrate concentrations for each set of conditions tested. Measurements of the impact of partner protein (DsaE) concentration on the initial rate of β-deuteration were carried out using 1 mM L-Ile, 3 μM DsaD and varying DsaE concentrations between 3 μM-600 μM (1-200 equiv). Under the minimal proton contamination conditions of this assay (99.9% D2O), Cα and Cβ deuteration are assumed to have occurred without back transfer to proton. The data were fit using the Michaelis-Menten equation implemented in Prism.

[2] = target: T1, DsaD (Streptomyces scopuliridis, UniProt A0A0D5CCB2); assay: H/D exchange of L-Ile with DsaD alone (steady-state kinetics); format: biochemical
Description: as §1, with “Conditions: 0.1-10 mM L-Ile, 3 μM DsaD, 50 mM sodium phosphate (pD 8.4), and 0.1 mM PLP in D2O (99.9%). Proteins were exchanged into a 50 mM sodium phosphate-D2O (pD 8.4) solution prior to reaction initiation to minimize proton contamination (<1% H2O).” left out
(§4) Kinetic analysis of biocatalytic L-Ile deuteration: Initial rates of α- or β-deuteration were obtained by means of end-point assay using the quantitation protocol for analytical scale reactions as described above. […] Michaelis constants (KM) for α- and β-deuteration of L-Ile were determined using the concentration range of 0.1-10 mM L-Ile using 3 μM DsaD. […]

[3] = target: T1, DsaD; assay: UV-vis spectroscopy of amino acid binding to DsaD; conditions: 20 μM DsaD, pH 8.0, 25° C.
Description: UV-Vis Spectroscopy: Data were collected between 600 and 300 nm on a UV-2600 Shimadzu spectrophotometer (Shimadzu, Kyoto, Japan) with a semi-micro quartz cuvette (Starna Cells, Atascadero, California, USA) at 25° C. DsaD stock solutions were diluted to 20 μM in 50 mM sodium phosphate pH 8.0. For observation of substrate binding, amino acids were added at concentrations ranging from 2.5-10 mM. Spectra from 600-300 nm were collected after a 2-minute incubation period. Amino acid stocks were prepared as 100 mM stocks in deionized water.

[4] = test system: DsaD/E complex; assay: Preparative-scale Cα/Cβ-deuteration with DsaD and DsaE clarified lysates in D2O; format: biochemical, Streptomyces scopuliridis
Description: (§5) FIG. 5. ^1H NMR analysis of site-selective deuteration of L-Leu. Reaction conditions: 20 mM L-Leu 2.5% v/v DsaD clarified lysate, 2.5% v/v DsaE clarified lysate (when needed), 50 mM sodium phosphate (pD 8.4), 0.1 mM PLP, D2O (99.9% D).
(§6) FIG. 8. Preparative-scale and site-selective deuteration of amino acids. Conditions: 10-20 mM amino acid, 2.5% v/v DsaD clarified lysate, 2.5% v/v DsaE clarified lysate, 50 mM sodium phosphate (pD 8.4), 0.1 mM PLP, D2O (99.9%).
(§7) General procedure for milligram-scale biocatalytic deuteration: A 4-dram scintillation vial was charged with amino acid (10-20 mM final concentration), Na3PO4 buffer pD 8.4 (50 mM final concentration), PLP (100 μM final concentration), DsaD clarified cell lysate (2.5% v/v), DsaE clarified cell lysate (if applicable) (2.5% v/v), and D2O (or dH2O) to the appropriate final volume. The reaction vessel was placed in an incubator at 37° C. for 16 h. Reaction progress was monitored by UPLC-MS. After reaction completion, the reaction mixture was quenched with an equivalent volume of acetone and centrifuged (4,000 rpm, 10 min) to remove denatured protein. Supernatant was transferred to a clean beaker, the decanted supernatant was concentrated to remove acetone by rotary evaporation and loaded onto a preparative reverse-phase C18 column pre-equilibrated with water. Purification was performed via gradient elution on an Isolera One Flash Purification system (Biotage). Fractions bearing product (confirmed by UPLC-MS sampling of fraction tubes) were pooled and dried by rotary evaporation. The product was then resuspended in a minimal quantity of water, transferred to a pre-weighed 20 mL vial, frozen, and lyophilized.

[5] = test system: DsaD/E complex; assay: Analytical-scale Cα/Cβ H/D exchange with purified DsaD and DsaE; format: biochemical, Streptomyces scopuliridis; conditions: 1 mM Ile, 0.05 mol % DsaD and DsaE (1:1), D2O, 37° C., 8 h
[6] = target: T1, DsaD; assay: Preparative-scale Cα-deuteration with DsaD clarified lysate in D2O; format: biochemical; conditions: DsaD lysate only
Description: as §5, §6
as §7, with “Supernatant was transferred to a clean beaker, the decanted supernatant was concentrated to remove acetone by rotary evaporation and loaded onto a preparative reverse-phase C18 column pre-equilibrated with water. Purification was performed via gradient elution on an Isolera One Flash Purification system (Biotage). Fractions bearing product (confirmed by UPLC-MS sampling of fraction tubes) were pooled and dried by rotary evaporation.” left out

[7] = test system: DsaD/E complex; assay: Analytical-scale Cα/Cβ H/D exchange with purified DsaD and DsaE; format: biochemical, Streptomyces scopuliridis; conditions: 10 mM substrate, 5 μM DsaD, 50 μM DsaE (10:1), 37° C., 8 h
Description: FIGS. 3A-3C. Optimization of H/D exchange reactions and evaluation of the substrate scope. FIG. 3A. Optimization of Cβ-deuteration by increasing equivalents of partner protein DsaE. FIG. 3B. Evaluation of substrate scope of dual-protein-catalyzed Cα/Cβ deuteration under optimized conditions. FIG. 3C. UV-visible spectroscopy used to evaluate non-native substrate binding to DsaD. Reaction conditions: 10 mM amino acid substrate, 50 μM DsaE, 5 μM DsaD (10:1), 50 mM sodium phosphate (pD 8.4), 0.1 mM PLP, D2O, 37° C., 8 h. Reactions performed in duplicate, and percentage isotope incorporation is reported as the average of the replicates.
General procedure analytical scale deuteration reactions: α/β deuteration reactions were performed as follows. A 1 mL Eppendorf tube was charged with amino acid (10-20 mM final concentration), Na3PO4 buffer pD 8.4 (50 mM final concentration), PLP (100 μM final concentration), purified enzymes or appropriate lysate and D2O and to the appropriate final volume (typically 50 μL). Reactions were carried out at 37° C. for 8 h and quenched by the addition of 3 volumes of acetonitrile. Precipitated biomolecules were pelleted by centrifugation (16,000×g, 10 min) and samples were processed as described below.
as §2, §3

[8] = test system: DsaD/E system; assay: Two-step Cα/Cβ deuteration then Cα deuterium washout with DsaD in H2O; format: biochemical, Streptomyces scopuliridis; conditions: lower substrate loading (10 mM), after Cα washout
Description: as §7
An initial reaction was performed with DsaD and DsaE to produce Cα,Cβ-deuterated L-Leu-2,3,3-d3 (25). Following reaction quenching with acetone, centrifugation to remove protein products, and removal of acetone and D2O via rotary evaporation, the dry crude product mixture was subjected to standard reaction conditions with DsaD in water. This reaction led to washout of the Cα deuterium, providing exclusively Cβ-deuterated L-Leu-3,3-d2 (44) with high levels of deuterium incorporation at Cβ (FIG. 5, 86% D incorporation and 98% ee). The site of H/D exchange in these reactions is dictated by the presence or absence of DsaE from the reaction conditions, enabling control of amino acid deuteration patterns.
We performed Cα/Cβ deuteration on a panel of amino acids, quenched the reactions and resubjected the crude product to Cα deuterium washout with DsaD in H2O. […]

[9] = substrate: CC[C@H](C)[C@H](N)C(=O)O; assay: H/D exchange of L-Ile with DsaD alone (steady-state kinetics); format: biochemical, Streptomyces scopuliridis; conditions: other: DsaD alone; pH 8.4
Description: as §1, with “Conditions: 0.1-10 mM L-Ile, 3 μM DsaD, 50 mM sodium phosphate (pD 8.4), and 0.1 mM PLP in D2O (99.9%). Proteins were exchanged into a 50 mM sodium phosphate-D2O (pD 8.4) solution prior to reaction initiation to minimize proton contamination (<1% H2O).” left out
as §4

[10] = lower substrate loading (10 mM)

Sequence of DsaD/DsaE complex (A0A0D5CBB6 entry or part of it, one chain of several): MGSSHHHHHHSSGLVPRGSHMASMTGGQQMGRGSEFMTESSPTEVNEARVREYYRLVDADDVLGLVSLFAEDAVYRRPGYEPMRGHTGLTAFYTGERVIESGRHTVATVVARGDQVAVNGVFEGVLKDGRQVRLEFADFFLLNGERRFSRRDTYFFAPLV

Molecule: CC[C@H](C)[C@H](N)C(=O)O [Ile, isoleucine]
- change of observed kcat or KM for Cα-deuteration ([1]; 150 μM DsaE (50:1 DsaE:DsaD)): did not significantly impact
- change of kcat of Cβ-deuteration ([1]; 5 equiv. of DsaE (5:1 DsaE:DsaD) vs one equivalent): did not significantly change
- decrease in observed KM of Cβ-deuteration ([1]; 5 equiv. vs one equivalent of DsaE): 11 fold
- increase in kcat of Cβ-deuteration ([1]; 50 equiv. of DsaE (50:1 DsaE:DsaD)): ~4 fold
- kcat of Cβ-deuteration ([1]; one equivalent of DsaE, 3 μM DsaD, D2O pD 8.4): 0.07 ± 0.007 s⁻¹
- kcat of Cα-deuteration ([1]; with DsaE bound): 0.75 ± 0.01 s⁻¹
- kcat of Cα exchange ([2]; DsaD alone): 1.04 ± 0.04 s⁻¹
- H/D exchange with just DsaD ([2]; excluding partner protein DsaE): a single H/D exchange event
- substrate binding to DsaD by UV-vis [3]: appearance of a new absorbance band at 328 nm
- deuteration at Cα ([4]; >600 mg scale): 95%
- deuteration at Cβ ([4]; >600 mg scale): 93%
- major product of H/D exchange [5]: 1:1 mixture of d2-2,3-L-Ile and d2-2,3-L-allo-Ile

Molecule: [2H][C@](N)(CC(C)C)C(=O)O [L-Leu-2-d]
- D incorporation at Cα [6]: 95%
- ee [6]: > 99 % ee

Molecule: N[C@@H](Cc1ccccc1)C(=O)O [Phe, phenylalanine]
- D-incorporation at Cα [7]: high Cα deuteration
- D-incorporation at Cβ [7]: 67%
- deuterium incorporation at Cβ [8]: 91%

Molecule: N[C@@H](Cc1ccc(O)cc1)C(=O)O [Tyr, tyrosine]
- D-incorporation at Cα [7]: 99%
- D-incorporation at Cβ [7]: 27%
- deuterium incorporation at Cα [4, 10]: 95%
- deuterium incorporation at Cβ [4, 10]: 49%
- deuterium incorporation at Cβ [8]: 40%

B1: DsaD (Streptomyces scopuliridis) (protein)
chain: MGSSHHHHHHSSGLVPRGSHMASMTGGQQMGRGSEFMHIVTTPVARPLTAQERTERCAAPAFGTAFTEHMVSARWNPEQGWHDAELVPYGPLLLDPATVGLHYGQVVFEGLKAFRSHTGEVAVFRPDAHAERMRASARRLMMPEPPEELFLAAVDALVAQDQEWIPDDPGMSLYLRPILFASERTLALRPAREYRFLLVAFITEGYFGPAQRPVRVWVTDEYSRAAAGGTGAAKCAGNYAGSLLAQEEAQRKGCDQVVWLDPVERNWVEEMGGMNLFFVYEAGGSARLVTPPLTGSLLPGVTRDALLRLAPTLGVPVSEAPLSLEQWRADCASGAITEVFACGTAARISPVNEVSTKDGSWTIGAGAPAEGGVAAGEVTGRLSAALFGIQRGELPDSHSWMRPVSPARQSAIT
- Km [9]: 700 ± 100 µM
